{"source": "patent US20150031598A1", "about": "“NEMO BINDING DOMAIN FUSION PROTEINS” (Encode Bio, Inc., priority 2012, published 2015)", "key": {"[1]": {"test_system": "carrageenan-induced paw edema", "test": "Mouse carrageenan paw edema (CPE) model", "format": "in vivo", "conditions": "for reduction of swelling: 12 hours post-carrageenan", "experimental": "Anti-inflammatory activity of linear NBD-MCoTI-II was tested at two doses (5 and 25 μg/kg) in the mouse CPE model. Mice were administered (i.p.) either NBD-MCoTI-II, dexamethasone (10 mg/kg) or saline one hour prior to inducing edema by carrageenan injection into the subplantar region of the left hind foot. Swelling was then measured by water displacement method at 2, 4, 6 and 12 hours post-carrageenan injection. […] At 12 hours, 5 and 25 μg/kg NBD MCoTI-II reduced swelling 30 and 50%, respectively (FIG. 5). […] (FIG. 5)."}, "HEK293 cells": {"test_system": "HEK293 cells", "format": "cell-based", "conditions": "concentrations up to 1 μM"}, "NF-κB signaling": {"test_system": "NF-κB signaling", "test": "TNFα-mediated SEAP expression in pNiFty-SEAP transfected HEK293 cells (NF-κB reporter)", "format": "cell-based", "conditions": "for block of TNFα-mediated SEAP expression (in words): pNiFty-SEAP transfected HEK293 cells", "from_the_text": "HEK293 cells were transfected with the plasmid pNiFty-SEAP which encodes for a secreted alkaline phosphatase (SEAP) whose expression is under control of an ELAM-1 composite promoter containing five NF-κB sites. Treatment of cells with TNFα causes activation of the IkB kinase complex and, in turn, NF-κB, resulting in SEAP expression. We verified that pNiFty-SEAP transfected HEK293 cells treated with the NBD Peptide (FIG. 2; FIG. 3, Panel B) blocked the expression of TNFα-mediated SEAP expression in a concentration-dependent manner with an IC50 of ˜60 μM. […] Treatment of cells with circularized NBD-MCoTI-II generated in bacteria (data not shown) or linear NBD-MCoTI-II generated by automated synthesis (FIG. 2; FIG. 3 Panel A) blocked TNFα-mediated SEAP expression, but not WT MCoTI-II (FIG. 2)."}, "[2]": {"test_system": "collagen-induced arthritis", "test": "Mouse collagen-induced arthritis (CIA) model, therapeutic mode", "format": "in vivo, male DBA/1J mice", "experimental": "We next tested the efficacy of linear NBD-MCoTI-II in the mouse CIA model in therapeutic mode, a standard model for evaluating anti-arthritic activity. Mice were injected with collagen type II. CIA was induced in male DBA/1J mice by tail injection of Type II collagen (100 μg) mixed with complete Freund's adjuvant. On Day 21, a booster injection (i.p.) of collagen (100 μg)/incomplete Freund's adjuvant was administered. The severity of arthritis (arthritic index (AI)) was scored in each paw as follows: 0-no evidence of erythema and swelling, 1-erythema and mild swelling confined to the mid-foot (tarsals) or ankle joint, 2-erythema and mild swelling extending from the ankle to the mid-foot, 3-erythema and moderate swelling extending from the ankle to the metatarsal joints and 4-erythema and severe swelling encompass the ankle, foot and digits. AI scores were measured in each paw and summed (maximum score of 16 per mouse). After the AI score reached an average of 3.1 on Day 27, mice were separated into three treatment groups and administered (i.p.) daily: saline, 100 μg/kg NBD-MCoTI-II and 3 mg/kg dexamethasone for 14 days. AI scores, body weights, paw thickness and any signs of distress were monitored daily. […] The marked inhibition of arthritic disease progression by NBD-MCoTI-II persisted for the study duration. […] The effect lasted the study duration.\nTo further assess the efficacy of linear NBD-MCoTI-II we performed histopathology analysis of the studies on the joints of CIA mice treated with saline and NBD-MCoTI-II (100 μg/kg).\nTo compare the efficacy of NBD-MCoTI-II to existing anti-arthritic drugs we calculated a composite histopathology score for the CIA mice from the individual scores of inflammation, pannus, cartilage damage and bone resorption by adding them. Shown in FIG. 9 is a comparison of the composite histopathology scores for NBD-MCoTI-II (100 μg/kg) to published values for the existing anti-arthritic drugs Enbrel™ (15 mg/kg), Orencia™ (5 mg/kg), Xeljanz™ (10 mg/kg) and INCB028050 (15/mg). Data are presented as a percent of the composite histopathology scores for CIA mice treated with saline. […] J Immunol 184:5298-307, the contents of each of which are herein incorporated by reference in their entireties). […] Thus, linear NBD-MCoTI-II prevented joint damage while the other anti-arthritic drugs were only capable of reducing joint damage.\nSplenomegaly is associated with arthritis and has been observed in the mouse CIA model [(see, e.g., Foell J L et al., (2004) Engagement of the CD137 (4-1BB) costimulatory molecule inhibits and reverses the autoimmune process in collagen-induced arthritis and establishes lasting disease resistance. Immunology 113:89-98; and Liu Y et al., (2011) Therapeutic effects of TACI-Ig on collagen-induced arthritis by regulating T and B lymphocytes function in DBA/1 mice. Eur J Pharmacol 654:304-14); the contents of each of which are herein incorporated by reference in their entirities)].\nMouse body weights were unchanged relative to saline controls."}, "[3]": {"target": "NEMO (nuclear factor kB essential modulator) (UniProt Q9Y6K9)", "sequence (Q9Y6K9 whole entry)": "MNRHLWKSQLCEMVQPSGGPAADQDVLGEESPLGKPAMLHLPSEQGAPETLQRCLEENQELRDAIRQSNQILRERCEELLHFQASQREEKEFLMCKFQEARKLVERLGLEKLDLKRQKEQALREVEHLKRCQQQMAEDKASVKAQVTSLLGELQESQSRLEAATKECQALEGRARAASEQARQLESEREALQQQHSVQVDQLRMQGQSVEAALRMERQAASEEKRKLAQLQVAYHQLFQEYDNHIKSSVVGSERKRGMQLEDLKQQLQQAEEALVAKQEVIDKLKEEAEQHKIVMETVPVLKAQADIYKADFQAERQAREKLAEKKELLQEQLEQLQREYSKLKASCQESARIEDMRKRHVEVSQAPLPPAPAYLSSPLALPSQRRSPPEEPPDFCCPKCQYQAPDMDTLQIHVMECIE", "test": "cell-based or functional assay"}, "[4]": {"target": "NEMO (nuclear factor kB essential modulator) (UniProt Q9Y6K9 1-419)", "sequence (Q9Y6K9 whole entry)": "as above", "test": "cell-based or functional assay"}}, "note": "Ends that are not written are not given here.", "data": [{"molecule": "FTALDWSWLQTCPKILKKCRRDSDCPGACICRGNGYC [linear NBD-MCoTI-II]", "values": [{"measurement": "in vivo potency relative to NBD Peptide", "setting": "[1]; 5 μg/kg NBD-MCoTI-II similar to NBD Peptide 25 mg/kg (di Meglio 2005)", "value": 5000, "unit": "fold"}, {"measurement": "reduction of swelling", "setting": "[1]; 5 μg/kg i.p.", "value": 30, "unit": "%"}, {"measurement": "reduction of swelling", "setting": "[1]; 25 μg/kg i.p.", "value": 50, "unit": "%"}, {"measurement": "swelling (in words)", "setting": "[1]; 5 and 25 μg/kg i.p., 4, 6 and 12 hours post-carrageenan", "value": "significantly reduced swelling"}, {"measurement": "overt cellular toxicity", "setting": "HEK293 cells", "value": "no overt cellular toxicity"}, {"measurement": "potency relative to NBD peptide, inhibition of NF-κB signaling", "setting": "NF-κB signaling; cell-based assay, versus NBD Peptide", "value": "10^6 fold"}, {"measurement": "block of TNFα-mediated SEAP expression (in words)", "setting": "NF-κB signaling", "value": "blocked"}, {"measurement": "joint histopathology scores (inflammation, pannus, cartilage damage, bone resorption)", "setting": "[2]; 100 μg/kg", "value": "at or near zero"}, {"measurement": "progression of arthritis (arthritic index score)", "setting": "[2]; 100 μg/kg i.p. daily, by Day 29, p<0.01, persisted for the study duration", "value": "halted the progression of arthritis"}, {"measurement": "increase in paw thickness", "setting": "[2]; 100 μg/kg i.p. daily, p<0.01, lasted the study duration", "value": "blocked the increase in paw thickness"}, {"measurement": "composite histopathology score", "setting": "[2]; 100 μg/kg, percent of saline-treated CIA mice", "value": "almost zero"}, {"measurement": "kidney, liver and intestine weights", "setting": "[2]; CIA mice", "value": "within normal ranges"}, {"measurement": "laboratory blood analysis (blood chemistry, kidney function tests, ALT, AST, blood cell counts)", "setting": "[2]; CIA mice", "value": "within normal ranges"}, {"measurement": "signs of toxicity or distress", "setting": "[2]; CIA mice, 100 μg/kg i.p. daily for 14 days", "value": "no obvious signs of toxicity or distress"}, {"measurement": "spleen weight", "setting": "[2]; CIA mice, saline 135±27 mg, p<0.01", "value": "100 ± 17", "unit": "mg"}, {"measurement": "efficacy relative to CP690550 (Xeljanz) and anti-TNF Ab control in ameliorating arthritic symptoms", "setting": "[2]; comparison with Milici 2008", "value": "at least as effective"}, {"measurement": "mouse body weights", "setting": "[2]; relative to saline controls", "value": "unchanged"}]}, {"molecule": "WT MCoTI-II: wild-type MCoTI-II (SEQ ID NO:3), cystine-knot microprotein, trypsin inhibitor subfamily (MCGSGSDGGVCPKILKKCRRDSDCPGACICRGNGY; disulfide (positions not given here); not fully specified; listed as Homo sapiens) [reference compound]", "values": [{"measurement": "overt cellular toxicity", "setting": "HEK293 cells", "value": "no overt cellular toxicity"}, {"measurement": "block of TNFα-mediated SEAP expression (in words)", "setting": "NF-κB signaling", "value": "not"}]}, {"molecule": "circularized NBD-MCoTI-II: circular, native-folded NBD-MCoTI-II generated in bacteria; sequence after processing SEQ ID NO:10 (cyclo(FTALDWSWLQTCPKILKKCRRDSDCPGACICRGNGYC); ends not checked; also: native-folded, disulfide pairing not given here)", "values": [{"measurement": "block of TNFα-mediated SEAP expression (in words)", "setting": "NF-κB signaling", "value": "blocked"}]}, {"molecule": "FTALDWSWLQT (peptide, part only; not given: cell penetrating peptide, part only, not fully specified)", "note": "[NBD Peptide]", "values": [{"measurement": "IC50 for blocking TNFα-mediated SEAP expression (NF-κB reporter, pNiFty-SEAP transfected HEK293 cells)", "setting": "[3]", "value": 60, "unit": "µM"}]}, {"molecule": "FTALDWSWLQTCPKILKKCRRDSDCPGACICRGNGYC (designed binder, ends and bridges not checked; also: folded in glutathione buffers, disulfides not placed)", "note": "[linear NBD-MCoTI-II generated by automated synthesis]", "values": [{"measurement": "IC50 for blocking TNFα-mediated SEAP expression (NF-κB reporter, pNiFty-SEAP transfected HEK293 cells)", "setting": "[4]", "value": 60, "unit": "pM"}]}]}
